Laboratory results taken from patent US4355170A, “1-Substituted imidazole derivatives” (Ono Pharmaceutical Co., Ltd., priority 1978, dated 1982).
Counter-ions that a name gives are not always drawn.

System: arachidonic acid-induced sudden deaths
Assay: inhibitory effect on arachidonic acid-induced sudden deaths of rabbits
Assay type: in vivo
Conditions: oral administration, 100 mg/kg animal body weight

SMILES | inhibitory effect on arachidonic acid-induced sudden deaths of rabbits
CC(CCCCCCn1ccnc1)C(=O)O.Cl (racemic) [1-[(7RS)-7-carboxyoctyl]imidazole hydrochloride] | inhibitory effect
Cl.O=C(O)CCCCC#CCn1ccnc1 [1-(7-carboxy-2-heptynyl)imidazole hydrochloride] | inhibitory effect
CC(C)(CCCCCCn1ccnc1)C(=O)O.Cl [1-(7-carboxy-7-methyloctyl)imidazole hydrochloride] | inhibitory effect

System: thromboxane synthetase
Assay: inhibitory action for thromboxane synthetase (prior art compounds)
Assay type: biochemical
Conditions: not completely satisfactory as a practical medication
Description: However, since their inhibitory action for thromboxane synthetase is weak, these compounds are hardly applicable as practically effective medicines.
On the other hand, N-(6-methoxycarbonylhexyl)imidazole has already been synthesized by P. Matthias et al, and publicly known [Monatsch Chem., 108(5), 1059(1977)].

inhibitory effect on thromboxane synthetase compared with imidazole or 1-methylimidazole | SMILES
stronger inhibitory effect | COC(=O)CCCCCCn1ccnc1 [N-(6-methoxycarbonylhexyl)imidazole]

Target: T1, thromboxane synthetase from rabbit platelet microsomes (Oryctolagus cuniculus, UniProt G1TAZ9)
T1 construct: thromboxane synthetase from rabbit platelet microsomes; from tissue; host or cells: rabbit platelet microsomes
T1 sequence (G1TAZ9 1-530): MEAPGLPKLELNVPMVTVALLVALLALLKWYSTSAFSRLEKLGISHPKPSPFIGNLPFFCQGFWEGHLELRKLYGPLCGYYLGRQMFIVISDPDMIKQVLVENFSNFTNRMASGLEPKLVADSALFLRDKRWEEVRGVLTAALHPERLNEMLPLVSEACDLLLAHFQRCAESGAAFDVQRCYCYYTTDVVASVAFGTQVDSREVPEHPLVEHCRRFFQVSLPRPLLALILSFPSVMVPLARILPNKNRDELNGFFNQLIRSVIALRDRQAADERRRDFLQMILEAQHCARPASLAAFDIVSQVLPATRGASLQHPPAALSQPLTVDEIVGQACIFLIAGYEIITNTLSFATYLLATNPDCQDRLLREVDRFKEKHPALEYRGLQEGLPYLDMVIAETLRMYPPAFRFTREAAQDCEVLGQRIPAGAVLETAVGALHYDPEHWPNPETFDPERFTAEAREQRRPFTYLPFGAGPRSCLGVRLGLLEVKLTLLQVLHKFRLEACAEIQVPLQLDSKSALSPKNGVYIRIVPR
Assay: inhibition of thromboxane synthetase from rabbit platelet microsomes (conversion of prostaglandin H2 into thromboxane B2)
Assay type: biochemical
Conditions: not given

IC50 [nM] | SMILES
130 | CCCCC(CCCn1ccnc1)C(=O)OCC (racemic) [1-[(4RS)-4-ethoxycarbonyloctyl]imidazole]
48 | CC(CCCCCn1ccnc1)CC(=O)O (racemic) [1-[(6RS)-7-carboxy-6-methylheptyl]imidazole hydrochloride]
200 | CCOC(=O)C(C)CCCCCCn1ccnc1 (racemic) [1-[(7RS)-7-ethoxycarbonyloctyl]imidazole]
90 | CC(C)(CCCCCCC(=O)O)n1ccnc1 [1-(7-carboxy-1,1-dimethylheptyl)imidazole hydrochloride]
71 | CC(C)(CCCCn1ccnc1)CCC(=O)O [1-(7-carboxy-5,5-dimethylheptyl)imidazole hydrochloride]
1000 | CCOC(=O)C(C)(C)CCCCCCn1ccnc1 [1-(7-ethoxycarbonyl-7-methyloctyl)imidazole]
70 | O=C(O)/C=C/CCCCCn1ccnc1 [(E)-1-(7-carboxy-6-heptenyl)imidazole hydrochloride]
2800 | CCOC(=O)/C=C/CCCCCn1ccnc1 [(E)-1-(7-ethoxycarbonyl-6-heptenyl)imidazole]
56 | O=C(O)CCCC/C=C\Cn1ccnc1 [(Z)-1-(7-carboxy-2-heptenyl)imidazole hydrochloride]
16 | O=C(O)/C=C\CCCCCn1ccnc1 [(Z)-1-(7-carboxy-6-heptenyl)imidazole hydrochloride]

SMILES | IC50 [nM]
CC(CCCCCCn1ccnc1)C(=O)O.Cl (racemic) [1-[(7RS)-7-carboxyoctyl]imidazole hydrochloride] | 30

System: not listed separately
Assay: acute toxicity test, LD50 in mice
Conditions: mouse, in vivo, iv

SMILES | LD50 [mg/kg]
CC(CCCCCn1ccnc1)C(C)C(=O)O.Cl (stereo not shown) [1-(7-carboxy-6-methyloctyl)imidazole hydrochloride] | 330
